Results on 20 molecules are retold here after ChEMBL document CHEMBL1151144, “Annonaceous acetogenins: a review” (J Nat Prod, 1990).

The test system of data set [1] is Calliphora vicina. As to the kind of experiment: Pesticidal activity against Blowfly larvae assessed as mortality at 10000 ppm. The format is functional.
Data set [2] is described as follows: Cytotoxicity against human 9KB cells. The data set is classed as functional. The settings on record: for EC50: Homo sapiens, 9KB, read-out: ED50 (the source's name).
The next data set relates to A549. The data set can be described thus: Cytotoxicity against human A549 cells. The data set is classed as functional. Particulars: for EC50: Homo sapiens, A549, read-out: ED50 (the source's name).
Data set [3] can be described thus: Cytotoxicity against mouse 9PS cells. The data set is classed as functional. Particulars: for EC50: Mus musculus, read-out: ED50 (the source's name).
The subject of data set [4] is Agrobacterium tumefaciens. The data set can be described thus: Antitumor activity assessed as inhibition of Agrobacterium tumefaciens-induced tumor formation by potato disk assay. The format is functional.
The next data set deals with Artemia. As to the kind of experiment: Toxicity against brine shrimp. The settings on record: in vivo. The format is organism-based.
The test system of data set [5] is Plasmodium falciparum. The data set can be described thus: Antiplasmodial activity against chloroquine-sensitive Plasmodium falciparum W2. The format is functional, organism-based.
Data set [6] has as its system Plasmodium falciparum. The data set can be described thus: Antiplasmodial activity against chloroquine-sensitive Plasmodium falciparum D6. The data set is classed as functional, organism-based.
Data set [7] is described as follows: Antimitotic activity in rat 9ASK cells assessed as reversal of astrocyte formation. The format is functional.
The nature of data set [8]: Antimitotic activity in rat 9ASK cells assessed as reversal of astrocyte formation at 100 ug/mL. The format is functional.
Data set [9] is described as follows: (§1) In vivo antitumor activity against mouse 3PS cells at 0.95 mg/kg relative to control. The format is functional.
For data set [10], the system named is Calliphora vicina. The data set can be described thus: Pesticidal activity against Blowfly larvae assessed as mortality at 1% drug concentration. The format is functional.
In another data set the test system is Aedes aegypti. As to the kind of experiment: Pesticidal activity against Aedes aegypti larvae assessed as mortality at 10 ppm. The format is functional.
A short description of data set [11]: as §1. The data set is classed as functional. The source holds these as a separate data set.
The test system of another data set is HT-29. As to the kind of experiment: Cytotoxicity against human HT-29 cells. The format is functional. The settings on record: for EC50: Homo sapiens, HT-29, read-out: ED50 (the source's name).
A further data set deals with MCF7. As to the kind of experiment: Cytotoxicity against human MCF7 cells. The data set is classed as functional. Particulars: for EC50: Homo sapiens, MCF7, read-out: ED50 (the source's name).
A short description of data set [12]: Antimitotic activity in rat 9ASK cells assessed as reversal of astrocyte formation at 10 ug/mL. The data set is classed as functional.
A short description of data set [13]: In vivo antitumor activity against mouse 3PS cells at 0.25 mg/kg relative to control. The format is functional.
Data set [14] in a line: In vivo antitumor activity against mouse 3PS cells at 1.4 mg/kg relative to control. The format is functional.
For data set [15], the system named is L1210. The data set can be described thus: In vivo antitumor activity against mouse L1210 cells at 0.4 mg/kg relative to control. The data set is classed as functional.
Data set [16] has as its system L1210. As to the kind of experiment: Cytotoxicity against mouse L1210 cells. The data set is classed as functional. Particulars: read-out: ED50 (the source's name).

Converted amounts (≈) assume the structure as drawn.

What is called LC50 is the concentration lethal to half of the exposed cells or organisms. As a reminder, the IC50 is the midpoint of a concentration-inhibition curve. Usually IC90 stands for the concentration at which the effect reaches the 90% level. A low value points to greater potency. Broadly, the T/C is the result in the treated group divided by that in the control group, in per cent. Consider `CCCCCCCCCCCC[C@@H](O)[C@H]1CC[C@H]([C@H](O)CCCC[C@H](O)CCCCC[C@@H](O)CC2=CC(C)OC2=O)O1` (stereo not given in full) [ANNONACIN], for which the Activity in the data set on Calliphora vicina [1] was determined as 100%; in data set [7], 51%; in [8], 15%; in the data set on Calliphora vicina [10], 100%; with Aedes aegypti, 70%. In addition, the results for the EC50 (in data set [2]; with A549; in the data set with HT-29) were 1 ng/mL (≈ 0.00168 µM), 1 ng/mL (≈ 0.00168 µM) and 3000 ng/mL (≈ 5.03 µM), respectively. The molecule further came in with an ED50 in data set [3] of 1 ×10⁻⁵ ug/ml. For the same molecule, the “inhibition (INH)” value in data set [4] was found to be 72%. The LC50 with Artemia was found to be 3.3 ppm. The figures for the IC50 with Plasmodium falciparum [5] and with Plasmodium falciparum [6] were 1.51 µg/mL (≈ 2.53 µM) and 1.3 µg/mL (≈ 2.18 µM), respectively. In addition, the results for the IC90 in the data set on Plasmodium falciparum [5] and in the data set with Plasmodium falciparum [6] were 74.7 µg/mL (≈ 125 µM) and 12.4 µg/mL (≈ 20.9 µM), respectively. The T/C in data set [9] and in data set [11] was 124% in each case.
Turning to `CCCCCCC(O)CCCC(O)C1CCC(C2CCC(C(O)CCCCCCCCCCCCC3=CC(C)OC3=O)O2)O1` (stereo not given) [ISOROLLINICIN], the EC50 in data set [3] turned out to be 0.01 µg/mL (≈ 0.0161 µM).
Turning to `CCCCCCCCCCCC[C@@H](O)[C@H]1CC[C@H]([C@H](O)CC[C@H](O)[C@@H]2CC[C@@H](CCCCC[C@@H](O)CC3=C[C@H](C)OC3=O)O2)O1` [GIGANTECIN], the ED50 was 4.11 ×10⁻⁹ ug/ml in the data set with MCF7; below 1 ×10⁻⁵ ug/ml in [2]; 2.19 ×10⁻⁷ ug/ml with A549; below 1 ×10⁻⁵ ug/ml in [3]; 2.68 ×10⁻⁴ ug/ml in the data set on HT-29. The “inhibition (INH)” value in [4] is recorded as 83%. The same molecule yielded an LC50 in the data set with Artemia of 222 ppm. For the same molecule, the Activity in data set [12] is recorded as 31%.
In turn, `CCCCCCCCC[C@@H](OC(C)=O)[C@H](OC(C)=O)[C@@H]1CC[C@@H]([C@@H]2CC[C@@H]([C@@H](CCCCCCCCCCCCC3=CC(C)OC3=O)OC(C)=O)O2)O1` (stereo not given in full) [ROLLINICIN TRIACETATE] registered an ED50 in data set [3] of 2.6 ×10⁻⁴ ug/ml.
With `CCCCCCCCCC[C@@H](O)[C@@H]1CC[C@H]([C@H]2CC[C@@H]([C@@H](O)CCCCCCCCCC[C@H](O)CC3=C[C@@H](C)OC3=O)O2)O1` [ROLLINIASTATIN 1], in [3], the ED50 was determined as 4.5 ×10⁻⁵ ug/ml. Further, in data set [13], the T/C was 128%.
With `CCCCCCCCC[C@@H](O)[C@@H](O)[C@@H]1CC[C@@H]([C@@H]2CC[C@@H]([C@@H](O)CCCCCCCCCCCCC3=CC(C)OC3=O)O2)O1` (stereo not given in full) [ROLLINICIN], in [3], the ED50 turned out to be 2.9 ×10⁻⁸ ug/ml.
With `CCCCCCCCCC[C@H](O)[C@H]1CC[C@H]([C@H](O)CC[C@H](O)[C@@H]2CC[C@@H](CCCCCCC[C@@H](O)CC3=C[C@H](C)OC3=O)O2)O1` [BULLATALICIN], the values for the EC50 (in the data set with MCF7; in data set [2]) were 2.34 µg/mL (≈ 3.66 µM) and above 10000 ng/mL, respectively. Further, the ED50 in the data set with A549 was determined as 2.34 ×10⁻⁷ ug/ml; in the data set with HT-29 it was 8.8 ×10⁻⁶ ug/ml. Also, the “inhibition (INH)” value in [4] worked out at 63%. Moreover, the LC50 with Artemia turned out to be 0.154 ppm.
Consider `CCCCCCCCCCCC[C@H](O)[C@@H]1CC[C@@H]([C@@H](O)CCCCC(=O)CCCCCC2CC(CC(C)=O)C(=O)O2)O1` (stereo not given in full) [ISOANNONACINONE], for which the EC50 in the data set with A549 is 70 ng/mL (≈ 0.118 µM); in data set [3] it was 0.5 µg/mL (≈ 0.841 µM); in the data set with HT-29, 9 ng/mL (≈ 0.0151 µM).
On to `CCCCCCCCCCCCCC[C@@H](O)[C@H]1CC[C@H]([C@H](O)CC[C@H](O)CCCCC[C@@H](O)CC2=C[C@H](C)OC2=O)O1` [GONIOTHALAMICIN], for which the Activity with Calliphora vicina [1] and in the data set with Aedes aegypti was 100% each time. Moreover, the EC50 in data set [2] was below 10 ng/mL; in data set [3], below 0.1 µg/mL. For the same molecule, in data set [4], the “inhibition (INH)” value was found to be 68%. The same molecule yielded an LC50 in the data set on Artemia of 37 ppm. Besides, the IC50 in the data set on Plasmodium falciparum [5] was determined as 1.59 µg/mL (≈ 2.66 µM); in the data set with Plasmodium falciparum [6] it was 1.08 µg/mL (≈ 1.82 µM). The results for the IC90 in the data set with Plasmodium falciparum [5] and in the data set on Plasmodium falciparum [6] were 23.6 µg/mL (≈ 39.6 µM) and 8.23 µg/mL (≈ 13.8 µM), respectively.
For `CCCC(O)CCC(O)CCC(O)C1CCC(C2CCC(C(O)CCCCCCCCCCCCCC3=CC(C)OC3=O)O2)O1` (stereo not given) [CHERIMOLINE], in data set [2], the ED50 came to 6 ×10⁻¹² ug/ml. Also, the values for the EC50 (in the data set with A549; in data set [3]; in the data set on HT-29) were 1 ng/mL (≈ 0.00157 µM), below 0.01 µg/mL and above 1 ng/mL, respectively. Moreover, the LC50 in the data set with Artemia is 1.24 ppm.
In data set [14], `CCCCCCCCCC[C@H](OC(C)=O)[C@H]1CC[C@H]([C@H]2CC[C@H]([C@H](O)CCCCCCCCCCCCC3=C[C@H](C)OC3=O)O2)O1` [UVARICIN] returned a T/C of 157%.
`CCCCCCCCCCCC[C@H](O)[C@@H]1CC[C@@H]([C@@H](O)CCCCCC(=O)CCCCC2CC(CC(C)=O)C(=O)O2)O1` (stereo not given in full) [SQUAMONE]: the LC50 in the data set on Artemia is reported as 2.1 ppm.
As to `CCCCCCCCCC[C@H](O)[C@H]1CC[C@H]([C@H]2CC[C@H]([C@H](O)CCCCCCCCCC[C@@H]3CC(CC(C)=O)C(=O)O3)O2)O1` (stereo not given in full) [BULLATACINONE], the “inhibition (INH)” value in [4] came out at 15%. The LC50 in the data set with Artemia is listed as 0.003 ppm. This molecule also gave a T/C with L1210 [15] of 144%.
For `CCCCCCCCCC[C@@H](O)[C@@H]1CC[C@H]([C@H](O)CC[C@H](O)[C@@H]2CC[C@@H](CCCCCCC[C@@H](O)CC3=C[C@H](C)OC3=O)O2)O1` [SYLVATICIN], the EC50 (in data set [2]; in the data set with A549; with HT-29) was below 1 ng/mL in each case. In the data set on Artemia, this molecule displayed an LC50 of 26 ppm.
With `CCCCCCCCCC[C@@H](OC(C)=O)[C@H]1CC[C@H]([C@@H](CC[C@@H](OC(C)=O)[C@@H]2CCC(CCCCCCC[C@@H](CC3=C[C@@H](C)OC3=O)OC(C)=O)O2)OC(C)=O)O1` (stereo not given in full) [BULLATALICIN TETRAACETATE], the values for the EC50 in the data set with MCF7, with A549 and with HT-29 were below 0.001 µg/mL, below 1 ng/mL and 1350 ng/mL (≈ 1.67 µM), respectively.
In the case of `CCCCCCCCCCCC[C@@H](O)[C@H]1CC[C@H]([C@H](O)CCCCC(=O)CCCCC[C@@H](O)CC2=C[C@H](C)OC2=O)O1` [ANNONACINONE], the EC50 in the data set on A549 amounted to 100 ng/mL (≈ 0.168 µM); in the data set on HT-29, 1000 ng/mL (≈ 1.68 µM). Besides, the ED50 in [3] was found to be 1 ×10⁻⁶ ug/ml.
Turning to `CCCCCCCCCCCC[C@H](O)[C@@H]1CC[C@@H]([C@@H](O)CCCCC(O)CCCCCC2CC(CC(C)=O)C(=O)O2)O1` (stereo not given in full) [ISOANNONACIN], the results for the EC50 (in the data set on A549; in [3]; in the data set on HT-29) were 20 ng/mL (≈ 0.0335 µM), 3 µg/mL (≈ 5.03 µM) and 2 ng/mL (≈ 0.00335 µM), respectively.
For the molecule `CCCC(O)CCC(O)CCC(O)C1CCC(C2CCC(C(O)CCCCCCCCCCCCCC3CC(C)OC3=O)O2)O1` (stereo not given) [DIHYDROCHERIMOLINE], the ED50 in data set [2] stood at 2 ×10⁻⁸ ug/ml. Also, the EC50 was 1 ng/mL (≈ 0.00156 µM) in the data set on A549, below 0.01 µg/mL in data set [3] and 1 ng/mL (≈ 0.00156 µM) in the data set on HT-29. This molecule also had an LC50 in the data set on Artemia of 4.02 ppm.
`CCCCCC[C@H](O)CCC[C@H](O)[C@H]1CC[C@H]([C@H]2CC[C@H]([C@H](O)CCCCCCCCCCCCC3=C[C@H](C)OC3=O)O2)O1` [SQUAMOCIN]: in the data set with L1210 [16], the EC50 amounted to 0.58 µg/mL (≈ 0.931 µM).
On to `CN(C)[C@@H]1C(O)=C(C(N)=O)C(=O)[C@@]2(O)C(O)=C3C(=O)c4c(O)cccc4[C@@](C)(O)[C@H]3C[C@@H]12` [TETRACYCLINE], for which the IC50 was found to be 5.39 µg/mL (≈ 12.1 µM) in the data set with Plasmodium falciparum [5] and 3.36 µg/mL (≈ 7.57 µM) with Plasmodium falciparum [6].
